Results published in patent publication US10471076B2, “Compositions and methods to treat vision disorders” (YouHealth Biotech, Limited, priority 2014, dated 2019).
Entries after “also recorded” stand apart in the source; their conditions may differ.

How the values were obtained:
LSS = target: T1, LSS (Rattus norvegicus, UniProt P48450); settings: cited from earlier work
T1 sequence (P48450 1-733): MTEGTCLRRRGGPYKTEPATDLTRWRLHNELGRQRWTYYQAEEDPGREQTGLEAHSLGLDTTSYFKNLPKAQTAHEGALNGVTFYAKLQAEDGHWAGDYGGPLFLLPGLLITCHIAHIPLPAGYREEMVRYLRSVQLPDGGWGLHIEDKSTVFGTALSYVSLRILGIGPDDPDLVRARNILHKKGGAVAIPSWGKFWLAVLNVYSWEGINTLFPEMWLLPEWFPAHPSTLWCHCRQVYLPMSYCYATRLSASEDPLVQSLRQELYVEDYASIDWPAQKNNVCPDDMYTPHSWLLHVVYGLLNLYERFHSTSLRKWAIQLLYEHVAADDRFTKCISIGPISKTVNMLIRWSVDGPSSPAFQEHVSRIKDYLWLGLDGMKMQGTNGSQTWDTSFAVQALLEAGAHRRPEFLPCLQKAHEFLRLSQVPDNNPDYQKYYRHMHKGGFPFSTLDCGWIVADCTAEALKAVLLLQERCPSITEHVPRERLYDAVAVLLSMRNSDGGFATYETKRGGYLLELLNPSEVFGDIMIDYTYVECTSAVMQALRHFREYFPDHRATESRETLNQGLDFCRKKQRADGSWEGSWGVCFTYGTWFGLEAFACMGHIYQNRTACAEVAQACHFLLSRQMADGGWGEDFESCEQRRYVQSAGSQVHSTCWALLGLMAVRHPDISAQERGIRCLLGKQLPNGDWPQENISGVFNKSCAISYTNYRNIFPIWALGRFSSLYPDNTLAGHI

[1] = system: cataract-causing mutant crystallin proteins; experiment: Intracellular aggregation of mutant crystallins in transfected human lens progenitor cells; assay type: cell-based
Protocol: To assess the effect of lanosterol on crystallin aggregation, human lens progenitor cells were co-transfected with LSS and various crystallin constructs for 4 h. Cells co-transfected with crystallin mutants and pcDNA3.1-N-Flag were used as a control. Human lens progenitor cells co-transfected with LSS and crystallin mutant constructs were cultured for 12 h before assaying for aggregates. The rescue experiments were performed after 16 h by addition of 40 mM sterols (lanosterol or cholesterol, Sigma-Aldrich) to the cell culture medium for 2 h, which was then replaced with fresh culture medium and cells cultured for 24 h. The percentage of cells with crystallin aggregates was calculated from ten randomly selected viewing fields. The values of the wild-type LSS group, mutant group, and mutant plus lanosterol group were calculated. Cells treated with 1% DMSO were used as the controls.
The impact of LSS and lanosterol on intracellular crystallin aggregation were evaluated in single-blinded observer studies. Experiments have been repeated at least three times. P values were calculated using Student's t-tests. Fluorescence microscopy. Equal amounts of the human lens progenitor cells, HLEB-3 cells or HeLa cells were seeded on glass coverslips pretreated with TC (Solarbio). After culturing for 24 h to reach 90% confluency, the cells were transfected with plasmids containing various LSS or crystallin genes or co-transfected with plasmids containing a certain crystallin gene and those containing the wild-type or mutated LSS gene. The controls were cells transfected with the plasmids containing peGFP-N1 and/or peDNA3.1-N-Flag. Both transfection and co-transfection were performed using Lipofectamine 3000 (Invitrogen) according to the instructions from the manufacturer.
The effect of lanosterol or cholesterol on the aggresome formation of various crystallins was studied by transfecting the cells with plasmids containing various crystallin genes. The cells were incubated for 24 h to enable efficient protein expression and aggresome formation. The cells were then treated with 0-40 mM sterols in 1% (for human lens progenitor cells) or 2% DMSO (for HeLa cells). Cells treated with 1% or 2% DMSO were used as the control. After treatment for 2 h, the media was replaced with fresh media. After 12 h, the cells were used for microscopy analysis.
The microscopy samples were prepared by washing the slips with phosphate buffered saline (PBS) three times. The cells were fixed with 4% paraformaldehyde for 40 min followed by another three washes with PBS. The cells were permeabilized with 0.1% Triton X-100 (Sigma) in PBS for 10 min and blocked with 5% normal goat serum in PBS for 1 h at 37° C. […] The mounted cells were analysed using a Carl Zeiss LSM 710 confocal microscope.

[2] = system: cataract-causing mutant crystallin proteins; experiment: Intracellular aggregation of mutant crystallins in HLEB-3 cells; assay type: cell-based, human; settings: HLEB-3 cells co-transfected with LSS and crystallin mutant; 40 μM sterols 2 h, then 12 h; lanosterol P<1×10^−4, cholesterol P>0.1
Protocol: (§1) FIG. 9A, FIG. 9B, and FIG. 9C show inhibition of crystallin mutant aggregation by wild-type LSS and lanosterol in HLEB-3 cells (FIG. 9A) or HeLa cells (FIG. 9B). Cells co-transfected with LSS and crystallin mutant constructs were cultured for 24 h before assaying for aggregates. The rescue experiments were performed by addition of 40 […] μM sterols (lanosterol or cholesterol) to the cell culture medium for 2 h, the sterol medium was then replaced with fresh culture medium and the cells were cultured for a further 12 h. The percentage of cells with crystallin aggregates were calculated from ten randomly selected viewing fields. The values of the wild-type LSS group, mutant group, or mutant plus lanosterol group were calculated. […] After transfection for 4 h and incubation in fresh culture medium for another 24 h, the cells were lysed and centrifuged to separate supernatant and insoluble fractions. LSS and crystallin fusion proteins were detected by antibodies against Flag and GFP, respectively. Red arrows indicate higher crystalline content in the soluble fraction versus in the insoluble fraction in cells containing the WT-LSS.
(§2) Cells were transfected with various crystallin constructs for 4 h and cultured for an additional 24 h in fresh culture medium. Then the cells were treated with 10, 20 and 40 μM lanosterol in 1% (HLEB-3 cells) or 2% DMSO (HeLa cells) for 2 h and cultured for another 12 h. Cells treated with 1% (HLEB-3 cells) or 2% DMSO (HeLa cells) were used as the controls. Formation of intracellular aggregates of various crystallin proteins was visualized by fluorescence of GFP (green) and the nuclei were stained with Hoechst 33342 (blue). Typical intracellular aggregates are indicated by arrows.
(§3) The impact of LSS and lanosterol on intracellular crystallin aggregation were evaluated in single-blinded observer studies. Experiments have been repeated at least three times. P values were calculated using Student's t-tests. Fluorescence microscopy. […]

[3] = system: cataract-causing mutant crystallin proteins; experiment: Intracellular aggregation of mutant crystallins in HeLa cells; assay type: cell-based, human; settings: HeLa cells co-transfected with LSS and crystallin mutant; 40 μM sterols 2 h, then 12 h; lanosterol P<1×10^−4, cholesterol P>0.1
Protocol: as §1, §2, §3

[4] = target: T2, αA-crystallin (Y118D) aggregates (Homo sapiens, UniProt P02489, Y118D); experiment: Serial live-cell imaging, single-particle tracking of aggregates; assay type: cell-based; settings: human lens progenitor cells; 40 mM sterol in 1% DMSO for 4 h
T2 construct: expressed in transfected cells; host or cells: human lens progenitor cells, G418-selected
T2 sequence (P02489 1-173 Y118D): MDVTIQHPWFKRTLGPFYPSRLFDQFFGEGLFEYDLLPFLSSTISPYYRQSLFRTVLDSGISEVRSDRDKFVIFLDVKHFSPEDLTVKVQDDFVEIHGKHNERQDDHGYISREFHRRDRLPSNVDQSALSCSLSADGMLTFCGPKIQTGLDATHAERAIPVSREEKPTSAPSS
Protocol: Live-cell imaging. Human lens progenitor cells were transfected with plasmids containing αA-crystallin (Y118D) mutant. After a 24 h transfection period, the cells with stable expression of αA-crystallin (Y118D) mutant were screen by incubation in culture medium containing 0.8 mg ml^−1 G418 for 7 days. Then the obtained cells were seeded onto glass bottom cell culture dishes (In Vitro Scientific) and treated with 1% DMSO, 40 mM cholesterol in 1% DMSO or 40 mM lanosterol in 1% DMSO for 4 h. Fresh culture medium was added, and the cells were analysed by serial live-cell imaging. Live-cell images were viewed with an Olympus IX81 microscope and captured with CellSens Dimension soft-ware (Olympus). Quantitative analysis of the size of aggregates was performed by measuring the fluorescence intensity of p62-positive aggregates using single-par-tide tracking in live-cell imaging. The live-cell imaging was conducted using three biological replicates with 1-8 repetitions each.

[5] = system: amyloid-like fibrils of crystallin proteins; experiment: Re-dissolution of pre-formed amyloid-like fibrils (ThT fluorescence, TEM, turbidity); assay type: biochemical, human; settings: 0.2 mg/ml aggregates; 500 μM sterols in 500 μM DPPC liposome (b129 prints 500 mM), 37° C., 24 h; TEM and ThT fluorescence; concentration-dependent
Protocol: Crystallin aggregates were formed by incubating 5 mg ml^−1 protein solution at 60° C. for 2 h (α-crystallins) or 37° C. for 48 h (β- and γ-crystallins) in the presence of 1 M guanidine chloride. The preformed aggregates were re-suspended in PBS at a final protein concentration of 0.2 mg ml^−1 and were treated with 500 μM sterols in 500 μM DPPC liposome and incubated at 37° C. for 24 h. Aggregates treated with 500 μM DPPC liposome only were used as the controls. […] Aggregates treated with 500 μM DPPC liposome only were used as the controls.
All protein samples were prepared in 20 mM PBS buffer containing 150 mM NaCl, 1 mM EDTA and 1 mM DTT.
Protein aggregation and aggregate dissociation. The aggregates of the wild-type and mutated αA- and αB-crystallin proteins were obtained by heating the protein solutions containing 1 M guanidine chloride (ultrapure, Sigma-Aldrich) at a con-centration of 5 mg/ml at 60° C. for 2 h. The aggregates of the wild-type and mutated b- and c-crystallins were prepared by heating the protein solutions containing 1 M guanidine chloride at 37° C. for 48 h. The formation of aggregates was confirmed by ThT fluorescence, turbidity (absorbance at 400 nm) and transmission electron microscopy (TEM) observations. […] After 24 h of treatment, the protein solutions were used for ThT fluorescence, turbidity and negatively stained TEM observations. […]

Structure (SMILES)	cataract formation by inhibition of LSS (LSS)	intracellular aggregation / aggresome formation of crystallin proteins ([1]; 0-40 mM sterols in 1% DMSO for 2 h, then 12 h, concentration-dependent, n=3, lanosterol P<1×10^−4, cholesterol P>0.1)	crystallin aggregation in cells co-expressing an LSS mutant and a mutant crystallin (rescue by sterol) ([1]; 40 mM sterols in culture medium for 2 h, then fresh medium 24 h)	percentage of cells with crystallin aggregates versus control group (rescue) [2]	percentage of cells with crystallin aggregates versus control group (rescue) [3]	effect on αA-crystallin (Y118D) aggregates in live cells [4]	re-dissolution of aggregated crystallin proteins from amyloid-like fibrils [5]
CCN(CC)CCO[C@H]1CC[C@@]2(C)C(=CC[C@@H]3[C@@H]2CC[C@]2(C)C(=O)CC[C@@H]32)C1 [U18666A]	cause cataracts	–	–	–	–	–	–
CC(C)CCC[C@@H](C)[C@H]1CC[C@H]2[C@@H]3CC=C4C[C@@H](O)CC[C@]4(C)[C@H]3CC[C@]12C [cholesterol, reference compound]	–	had no effect; also recorded: did not reduce intracellular aggregation	but not cholesterol	showed no difference to the control group	showed no difference to the control group	did not reduce aggresome formation	but not cholesterol
